Source: patent US7452870B2, “Drug-eluting stents coated with P2Y12 receptor antagonist compound” (Inspire Pharmaceuticals, Inc., priority 2000, dated 2008)

What was measured:
Type in all cases: cell-based
P2Y1 = P2Y1 (Homo sapiens, UniProt P47900); test: Calcium mobilization assay, P2Y1; parameters: key: no response (NR); details: activation of P2Y1 receptor;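 further: test compound added first then a maximal dose of the cognate agonist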
[1] = system: washed platelet (ADP-induced aggregation; P2Y12 receptor); test: ADP-induced platelet aggregation, washed platelet preparation; details: Homo sapiens, inhibition of ADP-induced aggregation, washed platelets, average of at least two separate experiments
Procedure: Blood was collected from healthy volunteers into syringes containing ⅙ final blood volume of anti-coagulant ACD (65 mM citric acid, 85 mM sodium citrate, 110 mM dextrose) for washed platelet (WP) preparation or into a syringe containing a final concentration of 10 units/mL heparin or 300 μM PPACK for whole blood (WB) assays. The blood collected for whole blood assays was maintained at room temperature and immediately tested as described below. […] These centrifugations and washes were repeated twice following by resuspension in the media described above containing 0.25 U apyrase/mL. Platelet aggregation was measured using the optical mode of a CHRONOLOG® aggregometer (Havertown, Pa.). Five hundred μl of platelet suspension containing 1 mg/mL Fibrinogen were warmed to 37° C. and stirred at 1000 rpm. Indicated concentrations of ADP were added to the sample and aggregation was monitored for 8 minutes. […] For whole blood aggregation, blood was diluted 1:1 with saline and then aggregation was performed in the same manner as described above using the impedance mode of the aggregometer. The potency of agonists and inhibitors of platelet aggregation was calculated from both, the rate of aggregation and the maximal extent of aggregation obtained for each determination by fitting the data to a four-parameter logistic equation using the […]® software package (GraphPad Corp. San Diego, Calif.).
The ability of P2Y12 antagonists to inhibit platelet aggregation is presented in this application as the percent inhibition of the aggregation induced by a maximally effective concentration of ADP.
Data presented are from the average of at least two separate experiments.

P2Y6 = P2Y6 (Homo sapiens, UniProt Q15077); test: Calcium mobilization assay, P2Y6; parameters: key: no response (NR); details: activation of P2Y6 receptor;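 further: test compound added first then a maximal dose of the cognate agonist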
P2Y4 = P2Y4 (Homo sapiens, UniProt P51582); test: Calcium mobilization assay, P2Y4; parameters: key: no response (NR); details: activation of P2Y4 receptor;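 further: test compound added first then a maximal dose of the cognate agonist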
P2Y2 = P2Y2 (Homo sapiens, UniProt P41231); test: Calcium mobilization assay, P2Y2; parameters: key: no response (NR); details: activation of P2Y2 receptor;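 further: test compound added first then a maximal dose of the cognate agonist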
P2Y2, sequence (P41231 whole entry, species assumed): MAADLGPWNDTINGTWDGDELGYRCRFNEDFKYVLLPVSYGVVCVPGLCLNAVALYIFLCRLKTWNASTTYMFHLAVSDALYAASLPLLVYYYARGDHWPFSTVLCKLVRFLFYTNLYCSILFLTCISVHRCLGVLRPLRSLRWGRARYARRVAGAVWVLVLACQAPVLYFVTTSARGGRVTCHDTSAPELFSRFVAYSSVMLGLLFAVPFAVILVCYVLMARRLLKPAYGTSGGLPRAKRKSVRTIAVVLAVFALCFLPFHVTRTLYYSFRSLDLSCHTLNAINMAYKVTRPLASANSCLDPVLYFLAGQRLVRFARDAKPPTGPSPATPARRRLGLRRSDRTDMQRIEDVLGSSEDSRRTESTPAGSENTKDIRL

P2Y4, sequence (P51582 whole entry, species assumed): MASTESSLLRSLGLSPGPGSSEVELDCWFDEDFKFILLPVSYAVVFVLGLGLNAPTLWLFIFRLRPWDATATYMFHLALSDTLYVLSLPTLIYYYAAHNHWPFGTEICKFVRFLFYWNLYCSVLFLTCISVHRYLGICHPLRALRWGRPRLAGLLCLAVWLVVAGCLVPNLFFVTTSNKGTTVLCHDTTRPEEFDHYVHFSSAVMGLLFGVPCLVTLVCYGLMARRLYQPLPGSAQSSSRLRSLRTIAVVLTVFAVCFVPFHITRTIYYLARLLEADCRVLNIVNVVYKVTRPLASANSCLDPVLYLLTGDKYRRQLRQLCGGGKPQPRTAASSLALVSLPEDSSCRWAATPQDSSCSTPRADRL
P2Y1, sequence (P47900 whole entry): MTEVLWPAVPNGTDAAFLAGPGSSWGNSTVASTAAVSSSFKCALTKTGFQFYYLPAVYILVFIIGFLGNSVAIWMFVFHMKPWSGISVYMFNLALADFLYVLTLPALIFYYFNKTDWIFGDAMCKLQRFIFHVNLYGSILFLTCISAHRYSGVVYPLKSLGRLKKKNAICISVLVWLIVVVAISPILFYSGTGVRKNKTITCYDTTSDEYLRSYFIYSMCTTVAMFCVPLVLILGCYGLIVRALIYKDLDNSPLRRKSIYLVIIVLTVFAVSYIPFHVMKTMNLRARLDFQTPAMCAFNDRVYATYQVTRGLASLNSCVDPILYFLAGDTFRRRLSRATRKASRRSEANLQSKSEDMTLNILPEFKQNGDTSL
P2Y6, sequence (Q15077 whole entry, species assumed): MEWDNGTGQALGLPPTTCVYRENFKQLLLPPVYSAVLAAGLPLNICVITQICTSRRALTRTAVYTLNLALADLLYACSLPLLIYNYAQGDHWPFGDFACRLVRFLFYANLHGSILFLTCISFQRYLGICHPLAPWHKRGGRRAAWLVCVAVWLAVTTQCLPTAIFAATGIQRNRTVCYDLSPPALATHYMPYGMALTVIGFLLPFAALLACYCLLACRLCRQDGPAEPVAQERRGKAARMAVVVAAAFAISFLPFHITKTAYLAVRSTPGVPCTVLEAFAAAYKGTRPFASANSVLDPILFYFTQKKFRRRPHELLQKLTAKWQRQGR

Compound | Calcium Mobilization P2Y1 (P2Y1) | IC50 [1] | Calcium Mobilization P2Y6 (P2Y6) | Calcium Mobilization P2Y4 (P2Y4) | Calcium Mobilization P2Y2 (P2Y2)
O=C(Nc1ccccc1)Nc1ncnc2c1ncn2[C@@H]1O[C@H](COP(=O)(O)O)C2OC(Cc3ccccc3)O[C@@H]21 (some centres unmarked) [Compound 22, 2′,3′-phenylacetaldehyde acetal-6-N-phenylurea adenosine 5′-monophosphate] | NR | 160 ± 27 nM | NR | NR | NR
CCCCCCNC(=O)Nc1ncnc2c1ncn2[C@@H]1O[C@H](COP(=O)(O)O)C2OC(Cc3ccccc3)O[C@@H]21 (some centres unmarked) [Compound 23, 2′,3′-phenylacetaldehyde acetal-6-N-n-hexylurea AMP] | NR | 53 ± 16 nM | NR | NR | NR
CCNC(=O)Nc1ncnc2c1ncn2[C@@H]1O[C@H](COP(=O)(O)O)C2OC(Cc3ccccc3)O[C@@H]21 (some centres unmarked) [Compound 24, 2′,3′-phenylacetaldehyde acetal-6-N-ethylurea AMP] | NR | 41 ± 7 nM | NR | NR | NR
O=C(Nc1ncnc2c1ncn2[C@@H]1O[C@H](COP(=O)(O)O)C2OC(Cc3ccccc3)O[C@@H]21)NC1CCCC1 (some centres unmarked) [Compound 25, 2′,3′-phenylacetaldehyde acetal-6-N-cyclopentylurea AMP] | NR | 36 ± 9 nM | NR | NR | NR
CCCCCCNC(=O)Nc1ncnc2c1ncn2[C@@H]1O[C@H](COP(=O)(O)O)C2OC(/C=C/c3ccccc3)O[C@@H]21 (some centres unmarked) [Compound 26, 2′,3′-cinnamyl acetal-6-N-n-hexylurea AMP] | NR | 36 ± 9 nM | NR | NR | NR
CCNC(=O)Nc1ncnc2c1ncn2[C@@H]1O[C@H](COP(=O)(O)O)C2OC(/C=C/c3ccccc3)O[C@@H]21 (some centres unmarked) [Compound 27, 2′,3′-cinnamyl acetal-6-N-ethylurea adenosine 5′-monophosphate] | NR | 9 ± 3 nM | NR | NR | NR
O=C(Nc1ccccc1)Nc1ncnc2c1ncn2[C@@H]1O[C@H](COP(=O)(O)O)C2OC(/C=C/c3ccccc3)O[C@@H]21 (some centres unmarked) [Compound 28, 2′,3′-cinnamyl acetal-6-N-phenylurea AMP] | NR | 209 nM | NR | NR | NR
O=C(Nc1ccccc1)Nc1ncnc2c1ncn2[C@@H]1O[C@H](COP(=O)(O)O)C2OC(C#Cc3ccccc3)O[C@@H]21 (some centres unmarked) [Compound 31, 2′,3′-phenylpropargyl acetal-6-N-phenylurea AMP] | NR | 230 nM | NR | NR | NR
CCCCCCNC(=O)Nc1ncnc2c1ncn2[C@@H]1O[C@H](COP(=O)(O)O)C2OC(C#Cc3ccccc3)O[C@@H]21 (some centres unmarked) [Compound 32, 2′,3′-phenylpropargyl acetal-6-N-n-hexylurea AMP] | NR | 210 nM | NR | NR | NR
CCCCNC(=O)Nc1ncnc2c1ncn2[C@@H]1O[C@H](COP(=O)(O)O)C2OC(C#Cc3ccccc3)O[C@@H]21 (some centres unmarked) [Compound 33, 2′,3′-phenylpropargyl acetal-6-N-n-butylurea AMP] | NR | 67 nM | NR | NR | NR
CCNC(=O)Nc1ncnc2c1ncn2[C@@H]1O[C@H](COP(=O)(O)O)C2OC(C#Cc3ccccc3)O[C@@H]21 (some centres unmarked) [Compound 35, 2′,3′-phenylpropargyl acetal-6-N-ethylurea AMP] | NR | 25 nM | NR | NR | NR
CCNC(=O)Nc1ncnc2c1ncn2[C@@H]1O[C@H](COP(=O)(O)O)C2OC(c3ccccc3)O[C@@H]21 (some centres unmarked) [Compound 36, 2′,3′-benzaldehyde acetal-6-N-ethylurea AMP] | NR | 13 ± 3 nM | NR | NR | NR
CCNC(=O)Nc1ncnc2c1ncn2[C@@H]1O[C@H](COP(=O)(O)O)C2O[C@H](c3ccccc3)O[C@@H]21 (stereo partly drawn) [Compound 42, 2′3′-(trans)phenyl acetal-6-N-ethylurea AMP] | NR | 12 nM | NR | NR | NR
CCNC(=O)Nc1ncnc2c1ncn2[C@@H]1O[C@H](COP(=O)(O)O)C2O[C@@H](c3ccccc3)O[C@@H]21 (stereo partly drawn) [Compound 43, 2′3′-(cis)phenyl acetal-6-N-ethylurea AMP] | NR | 11 nM | NR | NR | NR
CCNC(=O)Nc1ncnc2c1ncn2[C@@H]1O[C@H](COP(=O)(O)OP(=O)(O)OC[C@H]2O[C@@H](n3cnc4c(NC(=O)NCC)ncnc43)[C@H]3OC(C#Cc4ccccc4)OC23)C2OC(C#Cc3ccccc3)OC21 (some centres unmarked) [Compound 45, P^1, p2′-di-(2′,3′-phenylpropargylacetal-6-N-ethylureaadenosine 5′-) diphosphate] | NR | 10 nM | NR | NR | NR
CCNC(=O)Nc1ncnc2c1ncn2[C@@H]1O[C@H](COP(=O)(O)OP(=O)(O)OC[C@H]2O[C@@H](n3cnc4c(NC(=O)NCC)ncnc43)[C@H]3OC(Cc4ccccc4)OC23)C2OC(Cc3ccccc3)OC21 (some centres unmarked) [Compound 46, P^1, P^1-di-(2′,3′-phenylacetaldehydeacetal-6-N-ethylureaadenosine 5′-) diphosphate] | NR | 53 nM | NR | NR | NR
